Our source for the GI50 and TGI values is PubChem BioAssay (NCI).

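Test compounds were applied to cells in 96-well plates for 48 hours at 5 doses. GI50 = concentration required for 50% inhibition of growth. TGI: total growth inhibition.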 Bounds are passed on as bounds.

Test systems include RPMI-8226 leukemia; HL-60(TB) leukemia; K-562 leukemia; MDA-MB-435; HS 578T breast; UACC-62 melanoma; IGROV1 ovarian; SF-295 CNS; OVCAR-4 ovarian; HT29 colon.
Common to all, as to test: growth of human tumour cells (NCI), 48 h

For the compound `COc1ccc(-c2nc3sc4c(c3c(=O)[nH]2)CCCCCC4)cc1`, the GI50 with RPMI-8226 leukemia was > 33.2 µM; in the test on HL-60(TB) leukemia, 0.874 µM; with K-562 leukemia, 0.229 µM; in the test with MDA-MB-435 it was 0.107 µM; in the test with HS 578T breast it was 1.78 µM; with UACC-62 melanoma, 0.908 µM. Besides, the GI50 in the test on IGROV1 ovarian was 6.38 µM; in the test on SF-295 CNS, 0.989 µM. The TGI was > 33.2 µM in the test with RPMI-8226 leukemia; > 33.2 µM in the test with HL-60(TB) leukemia; > 33.2 µM in the test with K-562 leukemia; 0.838 µM with MDA-MB-435; > 33.2 µM with HS 578T breast; > 33.2 µM in the test with UACC-62 melanoma. Moreover, the TGI in the test on IGROV1 ovarian and in the test on SF-295 CNS was > 33.2 µM throughout.
For the compound `CC1(C)CC(=O)c2c(C(F)(F)F)nn(-c3ccc(C(N)=O)c(NC4CCC(OC(=O)CN)CC4)c3)c2C1` (stereo not given), the GI50 was > 25.1 µM with OVCAR-4 ovarian; 0.356 µM with RPMI-8226 leukemia; 0.0398 µM with HL-60(TB) leukemia; 0.036 µM in the test on K-562 leukemia; 0.0418 µM in the test on MDA-MB-435; 0.0321 µM in the test on HT29 colon. For the same compound, the GI50 is 9.73 µM in the test on HS 578T breast, 0.0507 µM with UACC-62 melanoma, 0.0422 µM with IGROV1 ovarian and 0.0593 µM with SF-295 CNS. Further, the TGI was > 100 µM with OVCAR-4 ovarian; > 60.1 µM in the test with RPMI-8226 leukemia; 13.2 µM in the test with HL-60(TB) leukemia; > 79.4 µM in the test on K-562 leukemia; > 47.3 µM in the test with MDA-MB-435; > 100 µM with HT29 colon. The TGI in the test with HS 578T breast was > 100 µM; in the test with UACC-62 melanoma, 14.5 µM; with IGROV1 ovarian, > 39.2 µM; in the test with SF-295 CNS, > 100 µM.
Consider `O=C1/C(=C\c2c[nH]c3ccccc23)c2ccccc2N1c1c(Cl)cccc1Cl`, for which the GI50 in the test with OVCAR-4 ovarian was 2.33 µM; with RPMI-8226 leukemia, 1.89 µM; in the test with HL-60(TB) leukemia, 1.55 µM; with K-562 leukemia it was 2.28 µM; with MDA-MB-435, 1.77 µM; with HT29 colon, 1.85 µM. Besides, the GI50 was 1.33 µM with UACC-62 melanoma, 1.19 µM in the test on IGROV1 ovarian and 1.75 µM in the test on SF-295 CNS. Also, the TGI with OVCAR-4 ovarian turned out to be 6.44 µM; in the test on RPMI-8226 leukemia, 4.68 µM; in the test with HL-60(TB) leukemia, 3.82 µM; in the test on K-562 leukemia, 5.4 µM; in the test with MDA-MB-435, 3.57 µM; in the test on HT29 colon, 3.4 µM. For the same compound, the TGI in the test on UACC-62 melanoma is 2.64 µM; with IGROV1 ovarian, 3.18 µM; in the test with SF-295 CNS, 3.51 µM.
Take `CC#C[C@]1(O)CC[C@H]2[C@@H]3CCC4=CC(=O)CCC4=C3[C@@H](c3ccc4c(c3)OCO4)C[C@@]21C`: the GI50 was 61.1 µM with OVCAR-4 ovarian; 49.4 µM in the test on RPMI-8226 leukemia; 47.5 µM in the test with HL-60(TB) leukemia; 106 µM with MDA-MB-435; 225 µM in the test on HT29 colon; 101 µM in the test on HS 578T breast. Besides, the GI50 in the test with UACC-62 melanoma is 50 µM; in the test with IGROV1 ovarian it was 59.9 µM; in the test on SF-295 CNS it was 67.8 µM. The TGI was 989 µM in the test on OVCAR-4 ovarian; 331 µM in the test with RPMI-8226 leukemia; 399 µM in the test with HL-60(TB) leukemia; 390 µM in the test with MDA-MB-435; > 1000 µM in the test with HT29 colon; 537 µM with HS 578T breast. Further, the results for the TGI with UACC-62 melanoma, with IGROV1 ovarian and in the test on SF-295 CNS were 204 µM, 589 µM and 329 µM, respectively.
On to `O=c1cc(-c2ccccc2)[nH]c2ccccc12`, for which the GI50 is 0.949 µM with OVCAR-4 ovarian; 1.18 µM with RPMI-8226 leukemia; 0.52 µM in the test on HL-60(TB) leukemia; 0.39 µM in the test with HT29 colon; 0.458 µM in the test on HS 578T breast; 0.519 µM in the test with UACC-62 melanoma. For the same compound, the GI50 in the test on IGROV1 ovarian is 2.35 µM; in the test on SF-295 CNS it was 0.458 µM. The TGI in the test on OVCAR-4 ovarian was > 100 µM; with RPMI-8226 leukemia, > 63 µM; in the test with HL-60(TB) leukemia, > 100 µM; in the test with K-562 leukemia, > 100 µM; in the test on HT29 colon, > 34.8 µM; in the test on HS 578T breast it was > 23.2 µM. The results for the TGI in the test with UACC-62 melanoma, with IGROV1 ovarian and in the test on SF-295 CNS were > 100 µM, > 33.7 µM and > 100 µM, respectively.
Turning to `C[C@@H]1C[C@H]2CC[C@H](O2)[C@H](C)C(=O)O[C@@H](C)C[C@@H]2CC[C@@H](O2)[C@@H](C)C(=O)O[C@H](C)C[C@H]2CC[C@H](O2)[C@H](C)C(=O)O[C@@H](C)C[C@@H]2CC[C@@H](O2)[C@@H](C)C(=O)O1`, the TGI with HL-60(TB) leukemia is 0.536 µM; in the test on K-562 leukemia, > 33.8 µM; with MDA-MB-435, > 49.3 µM; in the test on HT29 colon, 15.7 µM; with HS 578T breast, 54.3 µM; in the test with UACC-62 melanoma it was > 61.3 µM. Moreover, the TGI in the test on IGROV1 ovarian came to 32.4 µM; with SF-295 CNS, 0.659 µM.
As for `O=C1CC(c2ccc(O)cc2)C2(O1)C(=O)OC(C(O)CO)C2O` (stereo not given), the TGI in the test with RPMI-8226 leukemia, in the test on HL-60(TB) leukemia, with K-562 leukemia, in the test on MDA-MB-435, in the test on HT29 colon and in the test on HS 578T breast was > 100 µM each time. Moreover, the TGI in the test with UACC-62 melanoma, in the test with IGROV1 ovarian and in the test on SF-295 CNS was > 100 µM throughout.
`CC(CCC(=O)O)[C@H]1CCC2[C@@H]3CC[C@@H]4CC(O)CC[C@]4(C)C3CC[C@@]21C` (stereo not given in full): the GI50 with OVCAR-4 ovarian was 31.4 µM; with RPMI-8226 leukemia, 23.6 µM; in the test on HL-60(TB) leukemia, 52.3 µM; with K-562 leukemia, 32.6 µM; with MDA-MB-435, 37.5 µM; in the test on HT29 colon, 46.1 µM. For the same compound, the GI50 in the test on UACC-62 melanoma was 38.6 µM; in the test on IGROV1 ovarian, 40.7 µM. For the same compound, the TGI in the test on OVCAR-4 ovarian was > 100 µM; with RPMI-8226 leukemia, 57.1 µM; in the test with HL-60(TB) leukemia, > 100 µM; in the test on K-562 leukemia it was > 100 µM; in the test with MDA-MB-435 it was > 100 µM; with HT29 colon, > 100 µM. The TGI in the test with UACC-62 melanoma and with IGROV1 ovarian was > 100 µM each time.
Turning to `COc1cc2c(c(OC)c1)C1c3ccccc3NC(=O)N1CC2` (stereo not given), the GI50 was 8.24 µM with OVCAR-4 ovarian; 5.39 µM with RPMI-8226 leukemia; 2.12 µM in the test on HL-60(TB) leukemia; 2.98 µM in the test with K-562 leukemia; 3.37 µM in the test with HT29 colon; 6.3 µM with HS 578T breast. Moreover, the GI50 was 3.08 µM with UACC-62 melanoma, 7.71 µM in the test on IGROV1 ovarian and 2.63 µM in the test with SF-295 CNS. The TGI in the test with OVCAR-4 ovarian was > 100 µM; with RPMI-8226 leukemia, 68.2 µM; with HL-60(TB) leukemia, 5.56 µM; in the test on K-562 leukemia it was > 100 µM; in the test on HT29 colon it was > 100 µM; in the test on HS 578T breast, > 100 µM. The TGI is > 100 µM in the test on UACC-62 melanoma, > 100 µM with IGROV1 ovarian and 9.14 µM with SF-295 CNS.
